The data set has as its system RAW264.7 cells. As to the kind of experiment: Cell viability measurement using MTT assay. It is filed as cell-based, mouse. Conditions: vs untreated group. Here is the method: In order to evaluate a cell viability of the glycerol glucoside-based compound sample (EPS-S), an MTT assay was performed.
Specifically, subcultured RAW264.7 cells and HDF cells were aliquoted into a 96-well plate at 1×10^5, respectively, and cultured for 24 hours at 37° C. in an incubator containing 5% carbon dioxide, and then, a culture media was replaced with a serum-free media. Then, each sample was treated onto each cell by concentration. After culturing for 24 hours, an MTT solution was put into each well, reacted for 2 hours under light blocking, a supernatant was removed, a formed formazan was completely dissolved in DMSO, and an absorbance was measured at 540 nm with a microplate reader. In such a case, SDS was used as a positive control group. The test result value was calculated as in Equation 1 below and expressed as the cell viability compared to an untreated group, and was expressed as a mean±standard deviation.

Consider one compound from patent US20230140972A1, “GLYCEROL GLUCOSIDE-BASED COMPOUND AND COMPOSITION COMPRISING SAME FOR ULTRAVIOLET LIGHT SHIELD OR ANTI-INFLAMMATION” (ATHENA CO., LTD., priority 2020, published 2023).

Several values for one entry are separate records, joined by “and”; a condition that tells them apart may be missing. Identical values can stand only once.

With `CCCCCCCCCCCCOS(=O)(=O)[O-].[Na+]` [SDS], the cell viability (24 h, 1 ppm) is 99.95% and 99.95 ± 0.72%; the cell viability (24 h, 10 ppm) is 96.29% and 96.29 ± 0.16%; the cell viability (24 h, 100 ppm) is 7.75% and 7.75 ± 0.14%; the cell viability (24 h, 1,000 ppm) was 6.67% and 6.67 ± 0.16%.
